Our source for the inhibition, IC50 and Activity values is ChEMBL document CHEMBL3351790, “Inhibitory effects of p-alkylaminophenol on melanogenesis” (Bioorg Med Chem, 2014).

Activity calls are given as the source filed them. The rule behind the calls is not given here.

Series [1] relates to B16. Kind of series: Inhibition of alpha-MSH-induced melanin production in mouse B16 cells at 0.1 to 0.4 uM after 3 days by spectrophotometry relative to control. It is filed as functional, cell-based.
The subject of series [2] is B16. Put plainly: Inhibition of alpha-MSH-induced MITF protein expression in mouse B16 cells after 3 days by Western blotting relative to control. It is filed as functional, cell-based.
Series [3] concerns B16. Put plainly: Inhibition of alpha-MSH-induced melanin production in mouse B16 cells at 1 uM after 3 days by spectrophotometry relative to control. As to conditions: B16, 72 h. It is filed as functional.
Series [4] deals with B16. Put plainly: Inhibition of alpha-MSH-induced AKT phosphorylation in mouse B16 cells at 0.1 to 1 uM after 3 days by Western blotting relative to control. It is filed as cell-based.
The test system of series [5] is B16. Kind of series: Inhibition of alpha-MSH-induced MITF mRNA expression in mouse B16 cells at 1 uM after 3 days by RT-PCR analysis relative to control. As to conditions: B16, 72 h. It is filed as functional.
The subject of series [6] is B16. Kind of series: Inhibition of alpha-MSH-induced tyrosinase protein expression in mouse B16 cells at 0.1 to 1 uM after 3 days by Western blotting relative to control. The class given is functional, cell-based.
Series [7] addresses T1, Tyrosinase (Mus musculus) (UniProt P11344).
T1 sequence (whole entry): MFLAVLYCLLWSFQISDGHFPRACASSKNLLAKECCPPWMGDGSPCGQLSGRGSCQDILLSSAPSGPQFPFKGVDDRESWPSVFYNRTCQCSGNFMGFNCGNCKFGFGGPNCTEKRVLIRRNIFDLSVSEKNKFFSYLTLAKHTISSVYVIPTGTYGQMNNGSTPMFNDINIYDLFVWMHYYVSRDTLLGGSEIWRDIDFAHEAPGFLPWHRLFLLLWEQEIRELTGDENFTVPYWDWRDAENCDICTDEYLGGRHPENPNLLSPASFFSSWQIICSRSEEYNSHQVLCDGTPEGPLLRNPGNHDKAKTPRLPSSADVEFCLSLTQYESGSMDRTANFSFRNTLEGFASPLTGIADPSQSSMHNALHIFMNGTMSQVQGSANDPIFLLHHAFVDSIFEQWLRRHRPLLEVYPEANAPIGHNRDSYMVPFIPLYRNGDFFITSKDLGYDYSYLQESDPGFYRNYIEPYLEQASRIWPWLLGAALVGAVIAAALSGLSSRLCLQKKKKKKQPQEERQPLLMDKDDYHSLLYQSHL
Put plainly: Inhibition of tyrosinase in mouse B16 cells using L-tyrosine as substrate preincubated at 50 uM for 20 mins by spectrophotometry relative to control. The class given is cell-based.

The subject of a further series is Liver microsome. Put plainly: Inhibition of lipid peroxidation in rat liver microsomes. It is filed as functional.
For series [8], the system named is B16. Kind of series: Inhibition of alpha-MSH-induced TRP-1 protein expression in mouse B16 cells after 3 days by Western blotting relative to control. It is filed as functional, cell-based.
For series [9], the system named is B16. Kind of series: Inhibition of alpha-MSH-induced ERK phosphorylation in mouse B16 cells at 1 uM after 3 days by Western blotting relative to control. The class given is cell-based.
Series [10] relates to B16. Put plainly: Inhibition of alpha-MSH-induced TRP-2 protein expression in mouse B16 cells at 0.1 to 1 uM after 3 days by Western blotting relative to control. It is filed as functional, cell-based.
The test system of series [11] is B16. Kind of series: Inhibition of alpha-MSH-induced TRP-1 mRNA expression in mouse B16 cells at 1 uM after 3 days by RT-PCR analysis relative to control. It is filed as functional. As to conditions: B16, 72 h.
In series [12] the test system is B16. Put plainly: Cytotoxicity against mouse B16 cells at 1 uM after 72 hrs by MTT assay. It is filed as cell-based. As to conditions: b16, 72 h.
In series [13] the test system is B16. Put plainly: Inhibition of alpha-MSH-induced ERK phosphorylation in mouse B16 cells at 0.1 uM after 3 days by Western blotting relative to control. It is filed as cell-based.
In series [14] the test system is B16. Put plainly: Inhibition of alpha-MSH-induced tyrosinase mRNA expression in mouse B16 cells at 0.1 to 1 uM after 3 days by RT-PCR analysis relative to control. The class given is functional, cell-based.
Series [15] has as its system B16. Kind of series: Inhibition of alpha-MSH-induced ERK phosphorylation in mouse B16 cells at 0.4 uM after 3 days by Western blotting relative to control. It is filed as cell-based.
For series [16], the system named is B16. Put plainly: Inhibition of alpha-MSH-induced TRP-2 mRNA expression in mouse B16 cells at 0.1 to 1 uM after 3 days by RT-PCR analysis relative to control. It is filed as functional, cell-based.

Regarding `CCCCCCCCCCNc1ccc(O)cc1`, the inhibition entry in the series with B16 [1], in the series with B16 [4], in the series with B16 [6], with B16 [10], with B16 [14] and in the series on B16 [16] was “inactive” each time. Also, the inhibition result with B16 [2] is “Dose-dependent effect”; in series [7] it was 7%; with B16 [8], “Dose-dependent effect”; in the series with B16 [9], 88%; in the series on B16 [13] it was 22%; with B16 [15], 75%. Moreover, the figures for the inhibition at 1 µM in the series with B16 [3], in the series on B16 [5] and in the series on B16 [11] were 34%, 68% and 50%, respectively. In the series with Liver microsome, the midpoint of inhibition, the IC50, lay at 15 nM. Moreover, the Activity result with B16 [12] is given as “Non-toxic”.

Consider `CC1=C(/C=C/C(C)=C/C=C/C(C)=C/C(=O)Nc2ccc(O)cc2)C(C)(C)CCC1` [FENRETINIDE], for which the IC50 in the series with Liver microsome turned out to be 5000 nM.

In the case of `CCCCCCCCNc1ccc(O)cc1`, in the series on Liver microsome, the IC50 was 14 nM.

With `CCCCCCCCCCCCNc1ccc(O)cc1`, the half-inhibitory concentration (IC50) in the series with Liver microsome is 15.5 nM.

Take `CC1=C(/C=C/C(C)=C/C=C/C(C)=C/C(=O)O)C(C)(C)CCC1` [TRETINOIN]: the IC50 in the series on Liver microsome is 3200 nM.

With `CCCCCCNc1ccc(O)cc1`, the midpoint of inhibition in the series on Liver microsome, the IC50, lay at 33 nM.
